Experimental findings from ChEMBL document CHEMBL3039007, “Structure-based identification of OATP1B1/3 inhibitors” (Mol Pharmacol, 2013) are described below.

Series [1] deals with T1, Solute carrier organic anion transporter family member 1B1 (Homo sapiens, UniProt Q9Y6L6).
T1 sequence (Q9Y6L6 whole entry): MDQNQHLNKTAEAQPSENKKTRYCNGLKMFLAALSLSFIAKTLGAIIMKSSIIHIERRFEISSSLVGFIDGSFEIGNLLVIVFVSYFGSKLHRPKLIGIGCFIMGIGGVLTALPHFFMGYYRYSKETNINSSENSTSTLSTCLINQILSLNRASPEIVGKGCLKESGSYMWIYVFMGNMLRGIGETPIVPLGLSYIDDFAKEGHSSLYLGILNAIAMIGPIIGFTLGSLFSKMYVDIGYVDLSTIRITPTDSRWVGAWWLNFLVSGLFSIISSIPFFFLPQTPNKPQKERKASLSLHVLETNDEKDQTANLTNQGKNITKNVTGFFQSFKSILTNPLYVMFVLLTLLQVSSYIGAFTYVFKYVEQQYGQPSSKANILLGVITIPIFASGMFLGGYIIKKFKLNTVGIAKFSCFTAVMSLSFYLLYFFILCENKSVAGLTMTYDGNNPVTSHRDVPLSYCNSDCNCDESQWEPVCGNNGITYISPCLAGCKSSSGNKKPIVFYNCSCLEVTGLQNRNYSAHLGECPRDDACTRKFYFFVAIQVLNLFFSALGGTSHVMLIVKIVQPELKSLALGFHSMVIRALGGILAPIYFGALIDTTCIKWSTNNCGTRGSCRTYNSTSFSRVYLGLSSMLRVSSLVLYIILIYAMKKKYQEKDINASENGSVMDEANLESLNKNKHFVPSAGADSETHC
The note with it: chinese hamster, cho, 10 µM.

Series [2] addresses T2, Solute carrier organic anion transporter family member 1B3 (Homo sapiens, UniProt Q9NPD5).
T2 sequence (Q9NPD5 whole entry): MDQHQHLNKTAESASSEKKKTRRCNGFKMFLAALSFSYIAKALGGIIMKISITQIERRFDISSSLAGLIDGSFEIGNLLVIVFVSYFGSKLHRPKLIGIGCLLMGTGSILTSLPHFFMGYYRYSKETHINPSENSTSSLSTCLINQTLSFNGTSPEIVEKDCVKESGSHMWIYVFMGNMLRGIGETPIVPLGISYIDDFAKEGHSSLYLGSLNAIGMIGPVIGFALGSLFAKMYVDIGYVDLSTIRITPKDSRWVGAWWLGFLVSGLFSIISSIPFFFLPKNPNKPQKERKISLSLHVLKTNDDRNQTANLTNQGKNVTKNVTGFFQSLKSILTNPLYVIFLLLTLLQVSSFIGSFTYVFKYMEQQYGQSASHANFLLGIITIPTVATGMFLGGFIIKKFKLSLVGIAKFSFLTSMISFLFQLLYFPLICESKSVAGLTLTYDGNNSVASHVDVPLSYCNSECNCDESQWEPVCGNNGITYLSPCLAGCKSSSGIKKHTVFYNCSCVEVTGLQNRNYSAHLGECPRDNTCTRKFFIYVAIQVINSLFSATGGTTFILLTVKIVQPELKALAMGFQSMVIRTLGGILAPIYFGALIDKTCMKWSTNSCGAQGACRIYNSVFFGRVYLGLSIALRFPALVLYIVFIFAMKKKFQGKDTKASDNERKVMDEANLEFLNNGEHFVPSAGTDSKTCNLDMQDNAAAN
The note with it: chinese hamster, cho, 10 µM.

The residual activity is the signal under treatment as a percentage of the control signal.

As to `COC(=O)C1=C(C)NC(C)=C(C(=O)OCCN(C)Cc2ccccc2)C1c1cccc([N+](=O)[O-])c1.Cl` (stereo not given) [NICARDIPINE HYDROCHLORIDE], the figures for the residual activity in series [1] and in series [2] were 56.95% and 67.41%, respectively.
With `CO[C@]12C[C@@H](COC(=O)c3cncc(Br)c3)CN(C)[C@@H]1Cc1cn(C)c3cccc2c13` [NICERGOLINE], the residual activity in series [1] was determined as 91.22%; in series [2] it was 124.1%.
On to `COC(=O)C1=C(C)NC(C)=C(C(=O)OC)C1c1ccccc1[N+](=O)[O-]` [NIFEDIPINE], for which the residual activity in series [1] turned out to be 75.83%; in series [2], 170.6%.
On to `Cc1c(NC(=O)c2cccnc2)c(=O)n(-c2ccccc2)n1C` [NIFENAZONE], for which the residual activity in series [1] is 96.39%; in series [2] it was 120.6%.
As to `O=C(O)c1cccnc1Nc1cccc(C(F)(F)F)c1` [NIFLUMIC ACID], the residual activity came out at 79.63% in series [1] and 83.73% in series [2].
Taken in the same sequence, the figures for `C[C@H](C[C@@H](O)[C@@H]1OC1(C)C)[C@@H]1CC[C@]2(C)C3=CC[C@H]4C(C)(C)C(=O)CC[C@]4(C)[C@H]3CC[C@@]12C` [NILOTICIN] were 72.03% and 113.7%.
Consider `CC1(C)NC(=O)N(c2ccc([N+](=O)[O-])c(C(F)(F)F)c2)C1=O` [NILUTAMIDE], for which the figures for the residual activity in series [1] and in series [2] were 116.6% and 97.83%, respectively.
Take `CS(=O)(=O)Nc1ccc([N+](=O)[O-])cc1Oc1ccccc1` [NIMESULIDE]: the residual activity in series [1] is on record as 82.48%; in series [2], 58.26%.
`Cc1ncc(CNC(=O)N(CCCl)N=O)c(N)n1` [NIMUSTINE]: the residual activity in series [1] stood at 121.9%; in series [2], 112%.
As for `O=C(O)C1CCCNC1` (stereo not given) [NIPECOTIC ACID], the residual activity in series [1] was determined as 91.42%; in series [2] it was 103.2%.
Take `N=C(NCCC[C@H](N)C(=O)O)N[N+](=O)[O-]` [NITROARGININE]: the residual activity is given as 113.4% in series [1] and 113.8% in series [2].
In the case of `O=C1CN(/N=C/c2ccc([N+](=O)[O-])o2)C(=O)N1` [NITROFURANTOIN], the residual activity in series [1] stood at 97.62%; in series [2], 100.8%.
With `NC(=O)N/N=C/c1ccc([N+](=O)[O-])o1` [NITROFURAZONE], the residual activity in series [1] was 93.46%; in series [2], 98.78%.
Taken in the same sequence, the figures for `NC(=O)c1cc([N+](=O)[O-])cc([N+](=O)[O-])c1` [NITROMIDE] were 103.7% and 106.7%.
Taken in the same sequence, the figures for `COC(=O)Nc1nc2ccc(C(=O)c3cccs3)cc2[nH]1` [NOCODAZOLE] were 105.9% and 95.15%.
Take `CN1Cc2c(N)cccc2C(c2ccccc2)C1.O=C(O)/C=C\C(=O)O` (stereo not given) [NOMIFENSINE MALEATE]: the residual activity in series [1] came out at 59.46%; in series [2], 79.07%.
As to `CCCCC[C@H](CC(=O)O)C(=O)O` [NONIC ACID], the residual activity amounted to 128.4% in series [1] and 117% in series [2].
Taken in the same sequence, the figures for `CC(N)C(O)c1ccc(O)c(O)c1.Cl` (stereo not given) [NORDEFRIN HYDROCHLORIDE] were 122.3% and 103.4%.
Consider `NC[C@H](O)c1ccc(O)c(O)c1` [NOREPINEPHRINE], for which the residual activity in series [1] is recorded as 112.9%; in series [2], 102.3%.
Take `C#C[C@]1(OC(C)=O)CC[C@H]2[C@@H]3CCC4=CC(=O)CC[C@@H]4[C@H]3CC[C@@]21C` [NORETHINDRONE ACETATE]: the values for the residual activity in series [1] and in series [2] were 106.9% and 104.9%, respectively.
With `C#C[C@]1(O)CC[C@H]2[C@@H]3CCC4=CC(=O)CC[C@@H]4[C@H]3CC[C@@]21C` [NORETHINDRONE], the residual activity in series [1] came out at 91.27%; in series [2], 109.8%.
With `C#C[C@]1(O)CC[C@H]2[C@@H]3CCC4=C(CCC(=O)C4)[C@H]3CC[C@@]21C` [NORETHYNODREL], the residual activity in series [1] was 64.52%; in series [2] it was 124.5%.
For `CCn1cc(C(=O)O)c(=O)c2cc(F)c(N3CCNCC3)cc21` [NORFLOXACIN], the figures for the residual activity in series [1] and in series [2] were 97.94% and 99.94%, respectively.
In the case of `C#CC1(O)CC[C@H]2[C@@H]3CCC4=CC(=O)CC[C@@H]4[C@H]3CC[C@@]21CC` (stereo not given in full) [NORGESTREL], the values for the residual activity in series [1] and in series [2] were 90.26% and 102.9%, respectively.
With `c1ccc2c(c1)[nH]c1cnccc12` [NORHARMANE], the values for the residual activity in series [1] and in series [2] were 95.1% and 87.66%, respectively.
As to `COc1ccc2c(c1OC)C(=O)O[C@@H]2[C@H]1c2c(cc3c(c2OC)OCO3)CCN1C.Cl` [NOSCAPINE HYDROCHLORIDE], the residual activity in series [1] was 114.6%; in series [2] it was 93.17%.
`CO[C@@H]1[C@@H](OC(N)=O)[C@@H](O)[C@H](Oc2ccc3c([O-])c(NC(=O)c4ccc(O)c(CC=C(C)C)c4)c(=O)oc3c2C)OC1(C)C.[Na+]` [NOVOBIOCIN SODIUM]: the residual activity in series [1] stood at 56.21%; in series [2], 47.15%.
Consider `CC(CCc1ccccc1)NC(C)C(O)c1ccc(O)cc1.Cl` (stereo not given) [NYLIDRIN HYDROCHLORIDE], for which the residual activity is 112.1% in series [1] and 116.9% in series [2].
Taken in the same sequence, the figures for `C=C(C)[C@H]1COc2cc3oc(=O)ccc3cc2O1` [OBLIQUIN] were 112.3% and 103.6%.
As to `COC1=CC(=O)C(O)=C/C1=C\C=C\c1ccccc1` [OBTUSAQUINONE], the residual activity in series [1] is recorded as 60.32%; in series [2] it was 88.38%.
With `Cl.NCC(O)c1ccc(O)cc1` (stereo not given) [OCTOPAMINE HYDROCHLORIDE], the residual activity in series [1] is on record as 89.25%; in series [2], 96.06%.
As for `CC1COc2c(N3CCN(C)CC3)c(F)cc3c(=O)c(C(=O)O)cn1c23` (stereo not given) [OFLOXACIN], the residual activity turned out to be 65.85% in series [1] and 89.51% in series [2].
For the compound `O=C(O)CN(CC(=O)O)Cc1cc2c(cc1O)Oc1cc(O)c(CN(CC(=O)O)CC(=O)O)cc1C21OC(=O)c2ccccc21` [OFTASCEINE], the residual activity amounted to 105.6% in series [1] and 121.3% in series [2].
Turning to `CO[C@H]1C[C@H](O[C@H]2[C@H](C)[C@@H](O[C@@H]3O[C@H](C)C[C@H](N(C)C)[C@H]3O)[C@@H](C)C[C@@]3(CO3)C(=O)[C@H](C)[C@@H](O)[C@@H](C)[C@@H](C)OC(=O)[C@@H]2C)O[C@@H](C)[C@@H]1O.O=P(O)(O)O` [OLEANDOMYCIN PHOSPHATE], the residual activity in series [1] is 102.8%; in series [2] it was 105.8%.
Taken in the same sequence, the figures for `CO[C@H]1C[C@H](O[C@H]2CC[C@@]3(C)[C@H](CC[C@@H]4[C@@H]3CC[C@]3(C)[C@@H](C5=CC(=O)OC5)[C@@H](OC(C)=O)C[C@]43O)C2)O[C@@H](C)[C@@H]1O` [OLEANDRIN] were 111.5% and 91.7%.
In the case of `CC1(C)CC[C@]2(C(=O)O)CC[C@]3(C)C(=CC[C@@H]4[C@@]5(C)CC[C@H](O)C(C)(C)[C@@H]5CC[C@]43C)[C@@H]2C1` [OLEANOLIC_ACID], the residual activity in series [1] turned out to be 83.88%; in series [2], 73.61%.
Regarding `COc1ccc(CC(=O)c2ccc(O)cc2O)cc1` [ONONETIN], the residual activity in series [1] was found to be 149.8%; in series [2], 96.22%.
In the case of `CCCCCCCCCCC[C@@H](C[C@@H]1OC(=O)[C@H]1CCCCCC)OC(=O)[C@H](CC(C)C)NC=O` [ORLISTAT], the residual activity in series [1] is recorded as 85.27%; in series [2], 84.62%.
On to `Cc1ccccc1C(OCCN(C)C)c1ccccc1.O=C(O)CC(O)(CC(=O)O)C(=O)O` (stereo not given) [ORPHENADRINE CITRATE], for which the residual activity in series [1] was 87.55%; in series [2] it was 96.44%.
Taken in the same sequence, the figures for `CCOC(=O)c1c(C)cc(O)cc1O` [ORSELLINIC ACID, ETHYL ESTER] were 116.8% and 105.8%.
